# ChEMBL document CHEMBL6153048, “Synthesis and pharmacological evaluation of natural product diphyllin derivatives against head and neck squamous cell carcinoma” (Eur J Med Chem, 2025)
# Activity calls are given as the source filed them. The calls are words filed in the database; no cut-off is given here.
# Assays:
# [1] = system: PANC-1; test: Cytotoxicity against human PANC-1 cells incubated for 72 hrs by MTT assay; assay type: functional, cell-based; conditions: PANC-1, 72 h
# [2] = species on record: Homo sapiens; test: Inhibition of V-ATPase activity in lysosome of human CAL-27 cells using Lyso-Tracker Red as fluorescent probe assessed as decrease in fluorescence intensity at 0.25 uM incubated for 24 hrs by flow cytometry analysis
# [3] = system: CAL-27; test: Induction of cell cycle arrest in human CAL-27 cells assessed as downregulation of CDK4 expression incubated for 24 hrs by Western blotting analysis; assay type: functional, cell-based; conditions: dose 1-1000 nM
# [4] = Plasma clearance in ICR mouse at 1 mg/kg, iv measured upto 24 hrs by LC-MS/MS analysis; assay type: ADME, organism-based
# [5] = Cytotoxicity against human HN-6 cells incubated for 72 hrs by MTT assay; assay type: functional, cell-based; conditions: HN-6, 72 h
# [6] = system: MDA-MB-231; test: Cytotoxicity against human MDA-MB-231 cells incubated for 72 hrs by MTT assay; assay type: functional, cell-based; conditions: MDA-MB-231, 72 h
# [7] = system: SCC-9; test: Antiproliferative activity against human SCC-9 cells assessed as inhibition rate at 0.1 uM incubated for 72 hrs by MTT assay relative to control; assay type: functional
# [8] = system: SCC-25; test: Antiproliferative activity against human SCC-25 cells assessed as inhibition rate at 0.1 uM incubated for 72 hrs by MTT assay relative to control; assay type: functional
# [9] = system: CAL-27; test: Induction of cell cycle arrest in human CAL-27 cells assessed as downregulation of cyclin D1 expression incubated for 24 hrs by Western blotting analysis; assay type: functional, cell-based; conditions: dose 1-1000 nM
# [10] = system: CAL-27; test: Induction of apoptosis in human CAL-27 cells assessed as necrotic cells at 100 nM incubated for 72 hrs by Annexin V-FITC/propidium iodide staining based flow cytometry analysis (reference value: 0.03%); assay type: functional
# [11] = system: SNU-182; test: Cytotoxicity against human SNU-182 cells incubated for 72 hrs by MTT assay; assay type: functional, cell-based; conditions: SNU-182, 72 h
# [12] = system: CAL-27; test: Antitumor activity against human CAL-27 cells xenografted in BALB/c mouse model assessed as reduction in tumor weight at 0.6 mg/kg, iv treated four times a week for 30 days; assay type: functional; set-up: scale not given: the % may be the effect or the level left; conditions: time 30 day
# [13] = Antiproliferative activity against human L02 cells assessed as inhibition rate at 0.1 uM incubated for 72 hrs by MTT assay relative to control; assay type: toxicity, cell-based
# [14] = species on record: Homo sapiens; test: Inhibition of V-ATPase activity in lysosome of human CAL-27 cells using Lyso-Tracker Red as fluorescent probe assessed as decrease in fluorescence intensity at 0.5 uM incubated for 24 hrs by flow cytometry analysis
# [15] = Cmax in ICR mouse at 3 mg/kg, po measured upto 24 hrs by LC-MS/MS analysis; assay type: ADME, organism-based; conditions: in vivo
# [16] = system: SCC-9; test: Cytotoxicity against human SCC-9 cells incubated for 72 hrs by MTT assay; assay type: functional, cell-based; conditions: SCC-9, 72 h
# [17] = system: K562; test: Cytotoxicity against human K562 cells incubated for 72 hrs by MTT assay; assay type: functional, cell-based; conditions: K562, 72 h
# [18] = system: CAL-27; test: Induction of apoptosis in human CAL-27 cells assessed as necrotic cells at 1000 nM incubated for 72 hrs by Annexin V-FITC/propidium iodide staining based flow cytometry analysis (reference value: 0.03%); assay type: functional
# [19] = Cytotoxicity against human NCI-H322 cells incubated for 72 hrs by MTT assay; assay type: functional, cell-based; conditions: NCI-H322, 72 h
# [20] = system: KYSE-510; test: Cytotoxicity against human KYSE-510 cells incubated for 72 hrs by MTT assay; assay type: functional, cell-based; conditions: KYSE-510, 72 h
# [21] = system: CAL-27; test: Induction of apoptosis in human CAL-27 cells assessed as necrotic cells at 10 nM incubated for 72 hrs by Annexin V-FITC/propidium iodide staining based flow cytometry analysis (reference value: 0.03%); assay type: functional
# [22] = Antiproliferative activity against human HN-6 cells assessed as inhibition rate at 0.1 uM incubated for 72 hrs by MTT assay relative to control; assay type: functional
# [23] = Antiproliferative activity against human WSU HN-30 cells assessed as inhibition rate at 0.1 uM incubated for 72 hrs by MTT assay relative to control; assay type: functional; conditions: WSU-HN30
# [24] = Half life in ICR mouse at 1 mg/kg, iv measured upto 24 hrs by LC-MS/MS analysis; assay type: ADME, organism-based; conditions: in vivo
# [25] = system: CAL-27; test: Inhibition of cell migration in human CAL-27 cells at 1 to 1000 nM incubated for 24 hrs by wound healing assay; assay type: functional, cell-based; conditions: dose 1-1000 nM
# [26] = system: CAL-27; test: Antiproliferative activity against human CAL-27 cells assessed as inhibition of cell communities at 10 uM treated for 11 days by plate clone formation assay; assay type: functional, cell-based; conditions: time 11.0 day
# [27] = system: SK-BR-3; test: Cytotoxicity against human SK-BR-3 cells incubated for 72 hrs by MTT assay; assay type: functional, cell-based; conditions: SK-BR-3, 72 h
# [28] = system: HepG2; test: Cytotoxicity against human HepG2 cells incubated for 72 hrs by MTT assay; assay type: functional, cell-based; conditions: HepG2, 72 h
# [29] = system: CAL-27; test: Induction of apoptosis in human CAL-27 cells assessed as necrotic cells at 1 nM incubated for 72 hrs by Annexin V-FITC/propidium iodide staining based flow cytometry analysis (reference value: 0.03%); assay type: functional
# [30] = Cmax in ICR mouse at 1 mg/kg, iv measured upto 24 hrs by LC-MS/MS analysis; assay type: ADME, organism-based; conditions: in vivo
# [31] = system: CAL-27; test: Cytotoxicity against human CAL-27 cells incubated for 72 hrs by MTT assay; assay type: functional, cell-based; conditions: CAL-27, 72 h
# [32] = system: ASPC1; test: Cytotoxicity against human ASPC1 cells incubated for 72 hrs by MTT assay; assay type: functional, cell-based; conditions: ASPC1, 72 h
# [33] = system: SCC-25; test: Cytotoxicity against human SCC-25 cells incubated for 72 hrs by MTT assay; assay type: functional, cell-based; conditions: SCC-25, 72 h
# [34] = Cytotoxicity against human L02 cells incubated for 72 hrs by MTT assay; assay type: toxicity, cell-based
# [35] = system: SNU-449; test: Cytotoxicity against human SNU-449 cells incubated for 72 hrs by MTT assay; assay type: functional, cell-based; conditions: SNU-449, 72 h
# [36] = system: CAL-27; test: Antiproliferative activity against human CAL-27 cells assessed as inhibition rate at 0.1 uM incubated for 72 hrs by MTT assay relative to control; assay type: functional
# [37] = AUC (0 to t) in ICR mouse at 1 mg/kg, iv measured upto 24 hrs by LC-MS/MS analysis; assay type: ADME, organism-based; conditions: in vivo
# [38] = Oral bioavailability in ICR mouse at 3 mg/kg measured upto 24 hrs by LC-MS/MS analysis; assay type: ADME, organism-based; conditions: in vivo
# [39] = AUC (0 to t) in ICR mouse at 3 mg/kg, po measured upto 24 hrs by LC-MS/MS analysis; assay type: ADME, organism-based; conditions: in vivo
# [40] = system: Jurkat; test: Cytotoxicity against human Jurkat cells incubated for 72 hrs by MTT assay; assay type: functional, cell-based
# [41] = Cytotoxicity against human […] incubated for 72 hrs by MTT assay; assay type: functional, cell-based; conditions: WSU-HN30, 72 h
# [42] = system: CAL-27; test: Antitumor activity against human CAL-27 cells xenografted in BALB/c mouse model assessed as tumor volume change at 0.6 mg/kg, iv treated four times a week for 30 days; assay type: functional; conditions: CAL-27, 720 h, time 30 day, read-out: TGI
# [43] = system: CAL-27; test: Induction of apoptosis in human CAL-27 cells assessed as late apoptotic cells at 10 nM incubated for 72 hrs by Annexin V-FITC/propidium iodide staining based flow cytometry analysis (reference value: 1.82%); assay type: functional
structure (smiles),measurement,setting,value
COc1cc2c(O)c3c(c(-c4ccc5c(c4)OCO5)c2cc1OC)C(=O)OC3 [DIPHYLLIN],IC50,[1],> 10000 nM
same,Activity,[2],inactive
same,Activity,[3],Dose-dependent-effect
same,clearance,[4],409 mL/min/kg
same,IC50,[5],2210 nM
same,IC50,[6],> 10000 nM
same,inhibition at 0.1 µM,[7],16.6%
same,inhibition at 0.1 µM,[8],23.3%
same,Activity,[9],Dose-dependent-effect
same,Activity,[10],0.08%
same,IC50,[11],> 10000 nM
same,Activity,[12],33.3%
same,"inhibition at 72 h, 0.1 µM",[13],7.61%
same,Activity,[14],inactive
same,Cmax,[15],11.9 ng/mL
same,IC50,[16],1350 nM
same,IC50,[17],343 nM
same,Activity,[18],0.09%
same,IC50,[19],> 10000 nM
same,IC50,[20],2040 nM
same,Activity,[21],0.07%
same,inhibition at 0.1 µM,[22],30.8%
same,inhibition at 0.1 µM,[23],9.52%
same,half-life,[24],6.48 min
same,inhibition,[25],Active
same,Activity,[26],Active
same,IC50,[27],> 10000 nM
same,IC50,[28],> 10000 nM
same,Activity,[29],0.14%
same,Cmax,[30],160 ng/mL
same,IC50,[31],2000 nM
same,IC50,[32],> 10000 nM
same,IC50,[33],2390 nM
same,IC50 at 72 h,[34],> 10000 nM
same,IC50,[35],> 10000 nM
same,inhibition at 0.1 µM,[36],13.7%
same,AUC(0-t) at 24 h,[37],43.6 ng·h/mL
same,bioavailability,[38],2.7%
same,AUC(0-t) at 24 h,[39],3.56 ng·h/mL
same,IC50,[40],1660 nM
same,IC50,[41],1370 nM
same,inhibition in vivo at 0.6 mg/kg,[42],42.2%
COc1cc2c(O[C@@H]3O[C@@H]4CO[C@@H](c5ccsc5)O[C@H]4[C@H](O)[C@H]3O)c3c(c(-c4ccc5c(c4)OCO5)c2cc1OC)C(=O)OC3,IC50,[1],405 nM
same,Activity,[2],Active
same,Activity,[3],Dose-dependent-effect; Showed Effective Suppression
same,clearance,[4],31.6 mL/min/kg
same,Activity,[43],25.74%
same,IC50,[5],9.34 nM
same,IC50,[6],48.3 nM
same,inhibition at 0.1 µM,[7],76.3%
same,inhibition at 0.1 µM,[8],64.7%
same,Activity,[9],Dose-dependent-effect; Showed Effective Suppression
same,Activity,[10],4.68%
same,IC50,[11],45.5 nM
same,Activity,[12],46%
same,"inhibition at 72 h, 0.1 µM",[13],23.5%
same,Activity,[14],Active
same,Cmax,[15],306 ng/mL
same,IC50,[16],5.5 nM
same,IC50,[17],2.8 nM
same,Activity,[18],9.61%
same,IC50,[19],298 nM
same,IC50,[20],10.9 nM
same,Activity,[21],3%
same,inhibition at 0.1 µM,[22],69.4%
same,inhibition at 0.1 µM,[23],65.5%
same,half-life,[24],31.8 min
same,inhibition,[25],Active
same,Activity,[26],Active
same,IC50,[27],2.4 nM
same,IC50,[28],20.7 nM
same,Activity,[29],0.11%
same,Cmax,[30],609 ng/mL
same,IC50,[31],4.37 nM
same,IC50,[32],283 nM
same,IC50,[33],7.44 nM
same,IC50 at 72 h,[34],> 10000 nM
same,IC50,[35],544 nM
same,inhibition at 0.1 µM,[36],81.5%
same,AUC(0-t) at 24 h,[37],541 ng·h/mL
same,bioavailability,[38],20.9%
same,AUC(0-t) at 24 h,[39],338 ng·h/mL
same,IC50,[40],166 nM
same,IC50,[41],77.8 nM
same,inhibition in vivo at 0.6 mg/kg,[42],23.3%
